These results are taken from patent US9090596B2, “Disubstituted 3,4-diamino-3-cyclobutene-1,2-dione compounds for use in the treatment of chemokine-mediated pathologies” (GALDERMA RESEARCH & DEVELOPMENT, priority 2011, dated 2015).

For data set [1], the system named is receptors of CXCR1 and CXCR2 type. The note with it: pseudo-irreversible dissociation, JPET 322:477-485, 2007; cited from earlier work.
The target in another data set is CXCR1 receptor (Homo sapiens (Human), UniProt P25024). Kind of data set: β-arrestin 2 recruitment test, U2OS hCXCR1 β-arrestin cells stimulated with CXCL8. Format: cell-based. Particulars: CXCL8 stimulation. The method, then: (§1) The in vitro affinity of the compounds of the present invention for the CXCR1 and CXCR2 receptors was determined on a functional test of the β-arrestin recruitment type after receptor activation.
CXCR1 receptor, sequence (P25024 whole entry): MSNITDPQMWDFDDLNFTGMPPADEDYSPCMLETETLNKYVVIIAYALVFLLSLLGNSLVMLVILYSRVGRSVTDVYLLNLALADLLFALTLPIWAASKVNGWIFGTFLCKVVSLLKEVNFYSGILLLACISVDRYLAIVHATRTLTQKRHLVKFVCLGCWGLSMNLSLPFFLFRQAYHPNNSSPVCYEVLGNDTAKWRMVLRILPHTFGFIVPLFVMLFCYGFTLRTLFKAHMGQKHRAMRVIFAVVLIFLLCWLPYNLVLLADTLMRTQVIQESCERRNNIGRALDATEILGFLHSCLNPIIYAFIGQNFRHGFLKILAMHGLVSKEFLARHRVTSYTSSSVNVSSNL
(§2) β-Arrestin Recruitment Assay:
(§3) “PathHunter HEK293-CXCR2” or “U2OS hCXCR1 β-arrestin” cells (DiscoveRx Corporation) were seeded overnight at 10 000 cells/well (384-well format) in 20 μl of Opti MEM I medium. A preincubation with the antagonist or the vehicle for 30 min at 37° C. and 5% CO2 was followed by 60 minutes of stimulation with CXCL8 at 37° C. and 5% CO2. The cells were then placed at ambient temperature for 30 minutes. The PathHunter detection reagent (DiscoveRx Corporation) was added. […] The data were analyzed by means of a non-linear curve procedure using the XLFit4 exploitation software (IDBS) and the IC50 values were determined.

In another data set the target is CXCR2 receptor (Homo sapiens (Human), UniProt P25025). Kind of data set: β-arrestin 2 recruitment test, PathHunter HEK293-CXCR2 cells stimulated with CXCL8. The data set is classed as cell-based. The note with it: CXCL8 stimulation. How it is done:
as §1, §2, §3

Data set [2] can be described thus: Metabolic stabilities in hepatic microsomes. The data set is classed as in vitro ADME. Particulars: pH 7.4; hepatic microsomes 0.5 mg/ml, compound 1 μM; read-out: Half-life time. The method, then: Hepatic microsomes (Becton Dickinson) were incubated at a protein concentration of 0.5 mg/ml in the reaction medium.
The reaction medium of the microsomes was composed of phosphate buffer, pH: 7.4 at 100 mM, of MgCl2 at 100 mM (50/50), of an […] composed of a mixture of […] (NADP) and of glucose-6-phosphate (G6P) at 1 mg/ml and of glucose-6-phosphate dehydroganase (G6PDH) at 4 U/ml. The compounds were tested at 1 μM (0.1% DMSO).
The samples of incubation medium after addition of the microsomes were taken at times 5, 10, 15, 30 and 60 minutes. At each time, the metabolic reaction was stopped by adding methanol (1 volume incubation medium/3 volumes of methanol). The disappearance of the parent product was measured by LC/MS/MS analysis. The time for which 50% of parent Product disappeared (T½) was calculated from the kinetics of disappearance of the parent product as a function of time.

A further data set has as its target CCR4 (Homo sapiens (Human), UniProt P51679). In words: Receptor profiling: calcium flux (FLIPR TETRA) on Chem-1 cells expressing chemokine receptor. Format: cell-based. On the set-up: key to IC50 CCR4: IA: Inactive. The note with it: antagonist activity, reference agonist at AC80. How it is done: (§4) Measurement of Calcium Flux on Cells:
(§5) The experiments were carried out on the FLIPR TETRA® platform from Molecular Devices. After the basal level had been read, the compounds were added to the cells expressing the chemokine receptor of interest and the agonist activity was read at 10 seconds.
(§6) Each cell line expressing a chemokine receptor was established on the basis of the Chem-1 cell stably expressing the recombinant form of the chemokine receptor and also an associated G protein, with the aim of coupling the receptor to the calcium signalling pathway. 21 receptors belonging to the chemokine receptor family (CCRs and CXCRs) were analyzed. All the CXCR2 antagonists were tested in a dose-dependent manner and the concentration corresponding to 50% inhibition of the response was determined (IC50).

Another data set deals with CXCR3 (Homo sapiens (Human), UniProt P49682). The data set is described as above. The note with it: antagonist activity, reference agonist at AC80. Format: cell-based. The method, then: as §4, §5, §6
CXCR3, sequence (P49682 whole entry): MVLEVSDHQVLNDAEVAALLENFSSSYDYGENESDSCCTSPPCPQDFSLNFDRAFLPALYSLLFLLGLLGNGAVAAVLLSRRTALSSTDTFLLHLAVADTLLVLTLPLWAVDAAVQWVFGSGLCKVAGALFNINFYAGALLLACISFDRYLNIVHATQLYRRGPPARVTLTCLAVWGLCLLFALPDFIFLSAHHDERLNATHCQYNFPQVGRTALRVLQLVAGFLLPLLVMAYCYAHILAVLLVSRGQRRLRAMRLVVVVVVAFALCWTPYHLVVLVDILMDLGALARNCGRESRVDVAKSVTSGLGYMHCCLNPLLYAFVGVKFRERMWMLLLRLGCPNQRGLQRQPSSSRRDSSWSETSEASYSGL
A short description of data set [3]: Metabolic stabilities in hepatocytes. Particulars: human hepatocytes, compound 1 μM; read-out: Half-life time. The data set is classed as in vitro ADME. The method, then: The human hepatocytes were supplied by Biopredic in 24-well plates.
At each time, the metabolic reaction was stopped by adding methanol (1 volume incubation medium/3 volumes of methanol). The disappearance of the parent product was measured by LC/MS/MS analysis. The time for which 50% (T½) of parent product disappeared was calculated from the kinetics of disappearance of the parent product as a function of time.

CXCR2 receptor, sequence (P25025 whole entry): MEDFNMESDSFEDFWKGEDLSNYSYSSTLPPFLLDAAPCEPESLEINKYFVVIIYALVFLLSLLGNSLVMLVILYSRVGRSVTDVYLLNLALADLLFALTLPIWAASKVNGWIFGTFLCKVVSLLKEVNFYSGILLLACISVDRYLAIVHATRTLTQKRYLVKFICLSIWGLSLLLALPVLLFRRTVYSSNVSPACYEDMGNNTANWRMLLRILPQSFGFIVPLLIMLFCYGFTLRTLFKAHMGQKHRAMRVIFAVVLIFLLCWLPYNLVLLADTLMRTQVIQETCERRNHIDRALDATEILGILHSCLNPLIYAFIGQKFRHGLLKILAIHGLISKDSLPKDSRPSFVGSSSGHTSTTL
CCR4, sequence (P51679 whole entry): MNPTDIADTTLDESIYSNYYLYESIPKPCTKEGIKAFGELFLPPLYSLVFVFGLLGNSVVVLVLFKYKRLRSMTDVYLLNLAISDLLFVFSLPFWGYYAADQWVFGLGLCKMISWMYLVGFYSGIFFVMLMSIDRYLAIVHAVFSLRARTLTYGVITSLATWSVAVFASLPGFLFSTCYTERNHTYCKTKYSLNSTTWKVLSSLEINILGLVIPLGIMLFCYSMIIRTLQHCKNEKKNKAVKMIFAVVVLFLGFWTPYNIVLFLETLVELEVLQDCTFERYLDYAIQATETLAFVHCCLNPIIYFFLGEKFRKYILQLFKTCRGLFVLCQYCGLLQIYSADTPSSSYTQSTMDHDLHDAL

Regarding `CC[C@@H](Nc1c(Nc2cccc(C(=O)N(C)C)c2O)c(=O)c1=O)c1ccc(C)o1` [SCH-527123], the dissociation time entry in data set [1] is listed as “about 22 h”.
Take `Cc1ccc(C(Nc2c(Nc3cccc(S(=O)(=O)N(C)C)c3O)c(=O)c2=O)C2(C)COC2)o1` (stereo not drawn) [Example 21, 2-hydroxy-N,N-dimethyl-3-(2-{[(5-methylfuran-2-yl)-(3-methyloxetan-3-yl)methyl]amino}-3,4-dioxocyclobut-1-enylamino)benzenesulfonamide]: the results for the IC50 against CXCR1 receptor and on CXCR2 receptor were 1440 nM and 257 nM, respectively. Also, the half-life at 1 μM in data set [2] came to 7.7 min.
Take `Cc1ccc([C@H](Nc2c(Nc3ccc(Cl)c(S(=O)(=O)N4CCN(C)CC4)c3O)c(=O)c2=O)C2(C)COC2)o1` [Example 53, 3-[4-chloro-2-hydroxy-3-(4-methylpiperazine-1-sulfonyl)phenylamino]-4-{[(R)-(5-methylfuran-2-yl)-(3-methyloxetan-3-yl)methyl]amino}cyclobut-3-ene-1,2-dione]: the IC50 turned out to be 115 nM at CXCR1 receptor, 30 nM against CXCR2 receptor, 450 nM at CCR4 and 920 nM at CXCR3. Further, the half-life at 1 μM amounted to 47 min in data set [2] and 186 min in data set [3].
`COC(=O)[C@H]1CCCN1C(=O)c1cccc(Nc2c(N[C@@H](c3ccc(C)o3)C3(C)COC3)c(=O)c2=O)c1O` [Example 8, methyl (R)-1-[2-hydroxy-3-(2-{[(R)-(5-methylfuran-2-yl)-(3-methyloxetan-3-yl)methyl]amino}-3,4-dioxocyclobut-1-enylamino)benzoyl]pyrrolidine-2-carboxylate]: the figures for the half-maximal inhibitory concentration (IC50) on CXCR1 receptor, against CXCR2 receptor and at CXCR3 were 604 nM, 37 nM and 240 nM, respectively. In addition, at CCR4, the “IC50 CCR4” value was “IA”.
For the molecule `Cc1ccc([C@H](Nc2c(Nc3cccc(C(=O)N(C)C)c3O)c(=O)c2=O)C2(C)COC2)o1` [Example 50, 2-hydroxy-N,N-dimethyl-3-(2-{[((R)-5-methylfuran-2-yl)-(3-methyloxetan-3-yl)methyl]amino}-3,4-dioxocyclobut-1-enylamino)benzamide], on CXCR3, the 50% inhibitory concentration (IC50) came to 700 nM.
